What was measured:
Aβ(1-40) aggregates = target: T1, Aβ(1-40) aggregates (Homo sapiens, UniProt P05067); test: In vitro binding of [125I]-labelled compounds to Aβ aggregates (filtration, radioactivity on filter); conditions: [125I]-labelled compound; radioactivity remaining on filter in presence vs absence of Aβ aggregates
T1 construct: The amyloid β protein (Human, 1-40) [HCl form]; purchased Peptide Institute, Inc
Method: Aβ aggregates was dissolved in a buffer (pH 7.4) that contained 10 mM sodium phosphate and 1 mM EDTA, resulting in a concentration of 0.5 mg/ml. Thereafter, the obtained solution was incubated at 37° C. for 36 to 42 hours. A binding experiment was carried out using 12×75 mm borosilicate glass tubes. […] The obtained mixture was left at room temperature for 3 hours. Non-specific bond was calculated using nonradioactive compound 11 (1 μM). […] The radioactivity of a substance remaining in the filter used in filtration was measured with a γ counter. With regard to [^125I] compound 11, the Kd value thereof was calculated by the Scatchard analysis. In addition, using [^125I] compound 11 as a radioactive ligand, an inhibition experiment was carried out by the following method using the Aβ(1-40) aggregates and the Aβ(1-42) aggregates. […] The obtained mixture was left at room temperature for 3 hours. Non-specific bond was calculated using nonradioactive compound 11 (1 μM). The 50% inhibitory concentration was calculated using GraphPad Prism (GraphPad Software), and the inhibition constant (Ki value) was calculated according to the formula of Cheng-Prusoff, Ki=IC50/(1+[L]/Kd). In this formula, [L] represents the concentration of [^125I] compound 11, and Kd represents the dissociation constant of [^125I] compound 11 to the Aβ(1-40) aggregates and the Aβ(1-42) aggregates.

[1] = Radioactivity distribution in mouse body after intravenous administration of radioiodine labeled forms; conditions: for Distribution of radioactivity, Blood / Distribution of radioactivity, Brain / Distribution of radioactivity, Heart / Distribution of radioactivity, Intestine / Distribution of radioactivity, Kidney / Distribution of radioactivity, Liver / Distribution of radioactivity, Spleen: mouse, intravenous administration, mean (SD) of 3 to 5 mice
Method: Thereafter, 100 μl (0.5 to 1 μCi) of each labeled form was intravenously administered to each group consisting of three to five 5-week-old ddY male mice (25 to 30 g). 2, 10, 30, and 60 minutes after the intravenous administration, such mice were decapitated, and blood was collected. Thereafter, organs were excised, and the weight and radioactivity thereof were then measured.

[2] = normal mice, intravenous, [125I]-labelled form

T1 sequence (P05067 672-711 limits assumed): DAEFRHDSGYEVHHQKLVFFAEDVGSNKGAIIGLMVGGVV

| SMILES | bindability to the Aβ aggregates (Aβ(1-40) aggregates) | washing out / disappearance of radioactivity from the brain [1, 2] | Distribution of radioactivity, Blood ([1]; 2 min after administration) | Distribution of radioactivity, Blood ([1]; 10 min after administration) | Distribution of radioactivity, Blood ([1]; 30 min after administration) | Distribution of radioactivity, Blood ([1]; 60 min after administration) | Distribution of radioactivity, Brain ([1]; 2 min after administration) | Distribution of radioactivity, Brain ([1]; 10 min after administration) | Distribution of radioactivity, Brain ([1]; 30 min after administration) | Distribution of radioactivity, Brain ([1]; 60 min after administration) | Distribution of radioactivity, Heart ([1]; 2 min after administration) | Distribution of radioactivity, Heart ([1]; 10 min after administration) | Distribution of radioactivity, Heart ([1]; 30 min after administration) | Distribution of radioactivity, Heart ([1]; 60 min after administration) | Distribution of radioactivity, Intestine ([1]; 2 min after administration) | Distribution of radioactivity, Intestine ([1]; 10 min after administration) | Distribution of radioactivity, Intestine ([1]; 30 min after administration) | Distribution of radioactivity, Intestine ([1]; 60 min after administration) | Distribution of radioactivity, Kidney ([1]; 2 min after administration) | Distribution of radioactivity, Kidney ([1]; 10 min after administration) | further results |
| --- | --- | --- | --- | --- | --- | --- | --- | --- | --- | --- | --- | --- | --- | --- | --- | --- | --- | --- | --- | --- | --- |
| CN(C)c1ccc(/C=C/C(=O)c2ccc(I)cc2)cc1 [compound 36, (E)-3-(4-(dimethylamino)phenyl)-1-(4-iodophenyl)propan-2-en-1-one] | high binding affinity |  |  |  |  |  |  |  |  |  |  |  |  |  |  |  |  |  |  |  |  |
| Nc1ccc(C=Cc2cc(=O)c3cc(I)ccc3o2)cc1 [compound 46, 6-iodo-4′-aminostyrylchromone] | high binding affinity | rapid disappearance of radioactivity |  |  |  |  |  |  |  |  |  |  |  |  |  |  |  |  |  |  | ability to transfer to the brain [1, 2]: 4.9 % ID/g |
| CN(C)c1ccc(C=Cc2cc(=O)c3cc(I)ccc3o2)cc1 [compound 48, 6-iodo-4′-dimethylaminostyrylchromone] | high binding affinity |  |  |  |  |  |  |  |  |  |  |  |  |  |  |  |  |  |  |  | ability to transfer to the brain (in words) [1, 2]: low; radioactivity retention in the blood [1, 2]: high radioactivity retention ability in the blood |
| COc1cc(/C=C/C(=O)c2cccc(I)c2)ccc1O [compound 31, (E)-3-(4-hydroxy-3-methoxyphenyl)-1-(3-iodophenyl)propan-2-en-1-one] | high binding affinity | washed out rapidly |  |  |  |  |  |  |  |  |  |  |  |  |  |  |  |  |  |  | ability to transfer to the brain (in words) [1, 2]: transfers to the brain |
| Nc1ccc(C=Cc2cc(=O)c3cc([125I])ccc3o2)cc1 [[125I]Compound 46] |  |  | 2.34 (0.16) % ID/g | 2.44 (0.19) % ID/g | 2.56 (0.64) % ID/g | 2.27 (0.47) % ID/g | 4.88 (0.47) % ID/g | 4.40 (0.44) % ID/g | 2.78 (0.72) % ID/g | 1.62 (0.40) % ID/g | 8.40 (0.47) % ID/g | 3.78 (0.35) % ID/g | 2.43 (0.70) % ID/g | 1.64 (0.29) % ID/g | 2.84 (0.18) % ID/g | 5.51 (0.55) % ID/g | 11.71 (1.27) % ID/g | 16.08 (2.44) % ID/g | 11.94 (1.49) % ID/g | 6.99 (0.91) % ID/g | Distribution of radioactivity, Kidney ([1]; 30 min after administration): 4.91 (1.07) % ID/g; Distribution of radioactivity, Kidney ([1]; 60 min after administration): 3.76 (0.91) % ID/g; Distribution of radioactivity, Liver ([1]; 2 min after administration): 13.23 (1.65) % ID/g; Distribution of radioactivity, Liver ([1]; 10 min after administration): 14.49 (1.10) % ID/g; Distribution of radioactivity, Liver ([1]; 30 min after administration): 10.27 (1.84) % ID/g; Distribution of radioactivity, Liver ([1]; 60 min after administration): 8.16 (1.33) % ID/g; Distribution of radioactivity, Spleen ([1]; 2 min after administration): 4.23 (0.62) % ID/g; Distribution of radioactivity, Spleen ([1]; 10 min after administration): 3.64 (0.38) % ID/g; Distribution of radioactivity, Spleen ([1]; 30 min after administration): 2.92 (0.73) % ID/g; Distribution of radioactivity, Spleen ([1]; 60 min after administration): 2.16 (0.85) % ID/g |
| CNc1ccc(C=Cc2cc(=O)c3cc([125I])ccc3o2)cc1 [[125I]Compound 47] |  |  | 3.21 (0.38) % ID/g | 2.44 (0.082) % ID/g | 2.19 (0.29) % ID/g | 1.79 (0.23) % ID/g | 2.84 (0.35) % ID/g | 2.96 (0.25) % ID/g | 1.86 (0.30) % ID/g | 0.99 (0.09) % ID/g | 6.92 (1.41) % ID/g | 3.31 (0.69) % ID/g | 2.09 (0.39) % ID/g | 1.47 (0.27) % ID/g | 2.59 (0.38) % ID/g | 8.55 (1.21) % ID/g | 16.72 (2.58) % ID/g | 19.16 (2.63) % ID/g | 10.41 (1.33) % ID/g | 7.05 (0.56) % ID/g | Distribution of radioactivity, Kidney ([1]; 30 min after administration): 5.48 (0.97) % ID/g; Distribution of radioactivity, Kidney ([1]; 60 min after administration): 3.52 (1.36) % ID/g; Distribution of radioactivity, Liver ([1]; 2 min after administration): 14.55 (2.64) % ID/g; Distribution of radioactivity, Liver ([1]; 10 min after administration): 14.41 (2.52) % ID/g; Distribution of radioactivity, Liver ([1]; 30 min after administration): 11.13 (1.63) % ID/g; Distribution of radioactivity, Liver ([1]; 60 min after administration): 7.82 (0.94) % ID/g; Distribution of radioactivity, Spleen ([1]; 2 min after administration): 3.88 (0.74) % ID/g; Distribution of radioactivity, Spleen ([1]; 10 min after administration): 4.42 (1.05) % ID/g; Distribution of radioactivity, Spleen ([1]; 30 min after administration): 2.66 (0.47) % ID/g; Distribution of radioactivity, Spleen ([1]; 60 min after administration): 1.51 (0.19) % ID/g |
| CN(C)c1ccc(-c2cc(=O)c3cc([125I])ccc3o2)cc1 [[125I]Compound 11] |  |  | 1.87 (0.18) % ID/g | 1.07 (0.08) % ID/g | 1.20 (0.15) % ID/g | 1.15 (0.16) % ID/g | 3.22 (0.15) % ID/g | 3.61 (0.60) % ID/g | 1.89 (0.21) % ID/g | 0.99 (0.10) % ID/g | 5.63 (0.80) % ID/g | 2.47 (0.14) % ID/g | 1.69 (0.06) % ID/g | 1.07 (0.17) % ID/g | 2.24 (0.24) % ID/g | 6.56 (0.83) % ID/g | 12.97 (1.15) % ID/g | 18.64 (2.05) % ID/g | 8.33 (1.47) % ID/g | 4.31 (0.28) % ID/g | Distribution of radioactivity, Kidney ([1]; 30 min after administration): 3.40 (0.31) % ID/g; Distribution of radioactivity, Kidney ([1]; 60 min after administration): 2.32 (0.45) % ID/g; Distribution of radioactivity, Liver ([1]; 2 min after administration): 15.41 (0.98) % ID/g; Distribution of radioactivity, Liver ([1]; 10 min after administration): 21.85 (2.14) % ID/g; Distribution of radioactivity, Liver ([1]; 30 min after administration): 15.71 (0.96) % ID/g; Distribution of radioactivity, Liver ([1]; 60 min after administration): 12.40 (2.38) % ID/g; Distribution of radioactivity, Spleen ([1]; 2 min after administration): 2.72 (0.20) % ID/g; Distribution of radioactivity, Spleen ([1]; 10 min after administration): 1.92 (0.33) % ID/g; Distribution of radioactivity, Spleen ([1]; 30 min after administration): 1.58 (0.31) % ID/g; Distribution of radioactivity, Spleen ([1]; 60 min after administration): 1.18 (0.17) % ID/g |
| CNc1ccc(C=Cc2cc(=O)c3cc(I)ccc3o2)cc1 [compound 47, 6-iodo-4′-methylaminostyrylchromone] | high binding affinity | rapid disappearance of radioactivity |  |  |  |  |  |  |  |  |  |  |  |  |  |  |  |  |  |  | ability to transfer to the brain [1, 2]: 3.0 % ID/g |

Reference: US8192717B2, “Composition for diagnosing amyloid-related diseases” (Nagasaki University, priority 2004, dated 2012)
